Experimental data: ChEMBL document CHEMBL2069302, “Nortriterpene glycosides of the sarasinoside class from the sponge Lipastrotethya sp” (J Nat Prod, 2012)

Experiments:
K562 = assay: Cytotoxicity against human K562 cells; type: functional; settings: read-out: LC50 (the source's name)
[1] = biological target: Sodium/potassium-transporting ATPase; assay: Inhibition of Sodium/potassium-transporting ATPase; type: protein-complex assay, Homo sapiens
A549 = assay: Cytotoxicity against human A549 cells; type: functional; settings: read-out: LC50 (the source's name)

SMILES | CC50 (K562) [µM] | IC50 [1] [µM] | CC50 (A549) [µM]
CC(=O)N[C@H]1[C@H](O[C@@H]2CO[C@@H](O[C@H]3CC[C@@]4(C)[C@@H](CCC5=C6[C@H](O)C[C@H]([C@H](C)CC(=O)C=C(C)C)[C@@]6(C)CC[C@@]54O)C3(C)C)[C@H](O[C@@H]3O[C@H](CO[C@@H]4O[C@H](CO)[C@@H](O)[C@H](O)[C@H]4O[C@@H]4O[C@H](CO)[C@@H](O)[C@H](O)[C@H]4O)[C@@H](O)[C@H](O)[C@H]3NC(C)=O)[C@H]2O)O[C@H](CO)[C@H](O)[C@@H]1O [SARASINOSIDE H1] | 37.4 | > 75.7 | 14.2
CC(=O)N[C@H]1[C@H](O[C@@H]2CO[C@@H](O[C@H]3CC[C@]4(C)C5=CC[C@]6(C)[C@@H]([C@H](C)CC(=O)C=C(C)C)CC[C@H]6[C@@]5(O)CC[C@@]4(O)C3(C)C)[C@H](O[C@@H]3O[C@H](CO[C@@H]4O[C@H](CO)[C@@H](O)[C@H](O)[C@H]4O[C@@H]4O[C@H](CO)[C@@H](O)[C@H](O)[C@H]4O)[C@@H](O)[C@H](O)[C@H]3NC(C)=O)[C@H]2O)O[C@H](CO)[C@H](O)[C@@H]1O [SARASINOSIDE O] | 61.5 | > 75.7 | 54.7
CO[C@@H]1C[C@H]([C@H](C)CC(=O)C=C(C)C)[C@@]2(C)CC[C@@]3(O)C(=C12)CC[C@H]1C(C)(C)[C@@H](O[C@@H]2OC[C@@H](O[C@@H]4O[C@H](CO)[C@H](O)[C@H](O)[C@H]4NC(C)=O)[C@H](O)[C@H]2O[C@@H]2O[C@H](CO[C@@H]4O[C@H](CO)[C@@H](O)[C@H](O)[C@H]4O[C@@H]4O[C@H](CO)[C@@H](O)[C@H](O)[C@H]4O)[C@@H](O)[C@H](O)[C@H]2NC(C)=O)CC[C@@]13C [SARASINOSIDE H2] | 42.7 | > 74.9 | > 100
CC(=O)N[C@H]1[C@H](O[C@@H]2CO[C@@H](O[C@H]3CC[C@@]4(C)[C@@H](CC[C@@]5(O)[C@]4(O)CC=C4[C@@H]([C@H](C)CC(=O)C=C(C)C)CC[C@@]45C)C3(C)C)[C@H](O[C@@H]3O[C@H](CO[C@@H]4O[C@H](CO)[C@@H](O)[C@H](O)[C@H]4O[C@@H]4O[C@H](CO)[C@@H](O)[C@H](O)[C@H]4O)[C@@H](O)[C@H](O)[C@H]3NC(C)=O)[C@H]2O)O[C@H](CO)[C@H](O)[C@@H]1O [SARASINOSIDE R] | > 100 | > 75.7 | 14.7
CC(=O)N[C@H]1[C@H](O[C@@H]2CO[C@@H](O[C@H]3CC[C@]4(C)C5=CC[C@@]6(C)C(=C(CC[C@H]4C3(C)C)O5)CC[C@@H]6[C@H](C)CC(=O)C=C(C)C)[C@H](O[C@@H]3O[C@H](CO[C@@H]4O[C@H](CO)[C@@H](O)[C@H](O)[C@H]4O[C@@H]4O[C@H](CO)[C@@H](O)[C@H](O)[C@H]4O)[C@@H](O)[C@H](O)[C@H]3NC(C)=O)[C@H]2O)O[C@H](CO)[C@H](O)[C@@H]1O [SARASINOSIDE M] | 12.1 | > 76.7 | 7.7
CC(C)=CC(=O)C[C@@H](C)[C@H]1CCC2=C3CC[C@H]4C(C)(C)[C@@H](O)CC[C@]4(C)[C@H]3CC[C@@]21C | 69.4 | > 234 | 41.6
CC(=O)N[C@H]1[C@H](O[C@@H]2CO[C@@H](O[C@H]3CC[C@]4(C)C5=CC[C@]6(C)[C@@H]([C@H](C)CC(=O)C=C(C)C)CC[C@H]6[C@]5(O)CC[C@]4(O)C3(C)C)[C@H](O[C@@H]3O[C@H](CO[C@@H]4O[C@H](CO)[C@@H](O)[C@H](O)[C@H]4O[C@@H]4O[C@H](CO)[C@@H](O)[C@H](O)[C@H]4O)[C@@H](O)[C@H](O)[C@H]3NC(C)=O)[C@H]2O)O[C@H](CO)[C@H](O)[C@@H]1O [SARASINOSIDE P] | 11.6 | > 75.7 | 17.9
CC(=O)N[C@H]1[C@H](O[C@@H]2CO[C@@H](O[C@H]3CC[C@]4(C)C5=C(CC[C@H]4C3(C)C)[C@@H]3CC[C@H]([C@H](C)CC(=O)C=C(C)C)[C@@]3(C)CC5)[C@H](O[C@@H]3O[C@H](CO)[C@@H](O)[C@H](O)[C@H]3NC(C)=O)[C@H]2O)O[C@H](CO)[C@H](O)[C@@H]1O (relative stereo) | 20.2 | 56.1 | 10.7
CC(=O)N[C@H]1[C@H](O[C@@H]2CO[C@@H](O[C@H]3CC[C@]4(C)C5=C(CC[C@H]4C3(C)C)[C@@H]3CC[C@H]([C@H](C)CC(=O)CC(C)(C)O)[C@@]3(C)CC5)[C@H](O[C@@H]3O[C@H](CO[C@@H]4O[C@H](CO)[C@@H](O)[C@H](O)[C@H]4O[C@@H]4O[C@H](CO)[C@@H](O)[C@H](O)[C@H]4O)[C@@H](O)[C@H](O)[C@H]3NC(C)=O)[C@H]2O)O[C@H](CO)[C@H](O)[C@@H]1O [SARASINOSIDE J] | 20.8 | > 76.5 | 10.3
COc1cccc2c1C(=O)c1c(O)c3c(c(O)c1C2=O)C[C@@](O)(C(=O)CO)C[C@@H]3O[C@H]1C[C@H](N)[C@H](O)[C@H](C)O1 [DOXORUBICIN] | 4.7 |  | 1.7
CC(=O)N[C@H]1[C@H](O[C@@H]2CO[C@@H](O[C@H]3CC[C@]4(C)C5=C(CC[C@H]4C3(C)C)C3=CC[C@H]([C@H](C)CC(=O)C=C(C)C)[C@@]3(C)CC5)[C@H](O[C@@H]3O[C@H](CO[C@@H]4O[C@H](CO)[C@@H](O)[C@H](O)[C@H]4O[C@@H]4O[C@H](CO)[C@@H](O)[C@H](O)[C@H]4O)[C@@H](O)[C@H](O)[C@H]3NC(C)=O)[C@H]2O)O[C@H](CO)[C@H](O)[C@@H]1O [SARASINOSIDE A3] | 24.8 | > 77.7 | 10.1
CC(=O)N[C@H]1[C@H](O[C@@H]2CO[C@@H](O[C@H]3CC[C@]4(C)C5=C(CC[C@H]4C3(C)C)[C@@H]3CC[C@H]([C@H](C)CC(=O)C=C(C)C)[C@@]3(C)CC5)[C@H](O[C@@H]3O[C@H](CO[C@@H]4O[C@H](CO)[C@@H](O)[C@H](O)[C@H]4O[C@@H]4O[C@H](CO)[C@@H](O)[C@H](O)[C@H]4O)[C@@H](O)[C@H](O)[C@H]3NC(C)=O)[C@H]2O)O[C@H](CO)[C@H](O)[C@@H]1O [SARASINOSIDE A1] | 7.4 | 46.5 | 7.6
CC(=O)N[C@H]1[C@H](O[C@@H]2CO[C@@H](O[C@H]3CC[C@@]4(C)[C@@H](CCC5=C6CC[C@H]([C@H](C)CC(=O)C=C(C)C)[C@@]6(C)CC[C@@]4(O)O5)C3(C)C)[C@H](O[C@@H]3O[C@H](CO[C@@H]4O[C@H](CO)[C@@H](O)[C@H](O)[C@H]4O[C@@H]4O[C@H](CO)[C@@H](O)[C@H](O)[C@H]4O)[C@@H](O)[C@H](O)[C@H]3NC(C)=O)[C@H]2O)O[C@H](CO)[C@H](O)[C@@H]1O [SARASINOSIDE Q] | 17.9 | > 75.7 | 14
CC(=O)N[C@H]1[C@H](O[C@H]2[C@H](O[C@H]3CC[C@]4(C)C5=C(CC[C@H]4C3(C)C)[C@@H]3CC[C@H]([C@H](C)CC(=O)C=C(C)C)[C@@]3(C)CC5)OC[C@@H](O)[C@@H]2O)O[C@H](CO[C@@H]2O[C@H](CO)[C@@H](O)[C@H](O)[C@H]2O[C@@H]2O[C@H](CO)[C@@H](O)[C@H](O)[C@H]2O)[C@@H](O)[C@@H]1O | 18.7 | 54.7 | 9.1
CC(=O)N[C@H]1[C@H](O[C@@H]2CO[C@@H](O[C@H]3CC[C@]4(C)C5=CC[C@]6(C)[C@@H]([C@H](C)CC(=O)C=C(C)C)CC[C@H]6C5=CC[C@H]4C3(C)C)[C@H](O[C@@H]3O[C@H](CO[C@@H]4O[C@H](CO)[C@@H](O)[C@H](O)[C@H]4O[C@@H]4O[C@H](CO)[C@@H](O)[C@H](O)[C@H]4O)[C@@H](O)[C@H](O)[C@H]3NC(C)=O)[C@H]2O)O[C@H](CO)[C@H](O)[C@@H]1O [SARASINOSIDE A2] | 8.5 | > 77.7 | 7.6
